Measurements published in patent publication US8410337B2, “Plant tubby-like proteins” (Academia Sinica, priority 2003, dated 2013).

What was measured:
[1] = test system: Arabidopsis seedlings; assay: Seedling growth and greening on MS agar with ABA; assay type: in vivo, Arabidopsis thaliana; conditions: 1 μM ABA and 1% sucrose
Experimental: (§1) All seeds of the above-described lines were surface sterilized with 70% ethanol for 30 s and then with 6% household bleach for 5 min before being washed five times with sterile water. For aseptic growth, they were plated on solid medium containing Murashige and Skoog salts (Invitrogen), vitamins (Duchefa), 0.7% phytoagar (Invitrogen), and 1% sucrose and transferred to a tissue culture room. For soil growth, seedlings were transferred into individual pots 8-10 days after germination and maintained in the growth chamber. Plants were grown at 22° C. under a 16-hr-light/8-hr-dark photoperiod aseptically or on soil.
In contrast, under the same conditions, attlp9-1 and attlp9-2 plants continued to grow and about 45% of the seedlings continued to develop true leaves, although at slower rates than abi4-1 mutant does.

[2] = test system: Arabidopsis seeds; assay: Seed germination on media containing ABA; assay type: in vivo, Arabidopsis thaliana; conditions: 1 μM ABA
Experimental: as §1
To determine whether the transgenic plants display altered ABA responses, the above-described lines were germinated on media containing various concentrations of ABA. Seeds collected at the same or similar times were used. After surface-sterilization, sterile seeds were suspended in 0.15% agarose, and kept in the dark at 4° C. for 3 days to break residual dormancy. The seeds were then plated on agar plates in six replicates containing no ABA or 0.25, 0.5, 0.75, or 1.0 μM ABA in 12-cm plastic petri dishes. Each agar plate was divided into seven sections, and 50 seeds of WT and AtTLP9 transgenic seeds were plated on each section. A seed was regarded as germinated when the radicle protruded through the seed coat.

[3] = test system: AtTLP7 gene expression; conditions: channel 2 treated vs channel 1 control; cited from earlier work
[4] = test system: AtTLP10 gene expression; conditions: channel 2 treated vs channel 1 control; cited from earlier work
[5] = biological target: T1, ASK1 (Arabidopsis thaliana, UniProt Q39255); assay: Yeast two-hybrid analysis; assay type: binding; conditions: AtTLP9 in pBD-GAL4 Cam, ASK1 in pAD-GAL4-2.1, yeast strain YRG-2
T1 construct: fragment containing the entire coding region of ASK1 (At1g75950); expressed in transfected cells; host or cells: Saccharomyces cerevisiae strain YRG-2
T1 sequence (Q39255 1-160): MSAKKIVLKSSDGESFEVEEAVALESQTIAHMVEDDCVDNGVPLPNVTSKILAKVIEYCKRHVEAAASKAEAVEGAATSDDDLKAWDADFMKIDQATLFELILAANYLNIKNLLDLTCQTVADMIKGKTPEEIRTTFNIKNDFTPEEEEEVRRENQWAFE
T1 sequence (Q9SQU1 1-380 partner): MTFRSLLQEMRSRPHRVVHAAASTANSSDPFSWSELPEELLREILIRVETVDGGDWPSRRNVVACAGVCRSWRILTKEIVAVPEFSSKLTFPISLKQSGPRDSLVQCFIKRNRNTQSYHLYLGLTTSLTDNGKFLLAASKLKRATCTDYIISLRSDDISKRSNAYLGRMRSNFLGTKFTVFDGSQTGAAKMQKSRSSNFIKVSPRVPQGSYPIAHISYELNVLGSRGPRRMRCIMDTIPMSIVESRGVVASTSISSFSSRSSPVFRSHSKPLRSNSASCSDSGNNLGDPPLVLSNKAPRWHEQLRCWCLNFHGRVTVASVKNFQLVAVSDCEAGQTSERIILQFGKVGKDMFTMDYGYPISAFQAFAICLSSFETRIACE
Excerpt: To test whether AtTLP could interact with ASK1, AtTLP9 was examined by the yeast two-hybrid analysis. Yeast two-hybrid vectors, pAD-GAL4-2.1 and pBD-GAL4 Cam (Stratagene, La Jolla, Calif.), were used for C-terminal GAL4 AD and BD fusion constructions, respectively. A 1.1-kb SalI-PstI fragment containing the entire coding region of AtTLP9 was cloned into the SalI-PstI site of the pBD-GAL4 Cam vector. A 480-bp EcoRI-PstI fragment containing the entire coding region of ASK1 (At1g75950) was cloned into the EcoRI-PstI site of the pAD-GAL4-2.1 vector. The yeast strain YRG-2 [MATa ura3-52 his3-200 ade2-101 lys2-801 trp1-901 leu2-3,112 ga14-542 ga180-538 LYS2::GAL1UAS-GAL1TATA-HIS3 URA3::(GAL43×17mer)-CYC1TATA-lacZ] was co-transformed with the two vectors. The Y2H analysis was performed according to the manufacturer's recommendations (Stratagene).

## CC1=CC(=O)CC(C)(C)[C@@]1(O)/C=C/C(C)=C\C(=O)O [ABA, Abscisic acid]
[1]; 10-d-old seedlings of sense lines
  seedlings showing developmental arrest: 90%
[1]; attlp9-1 and attlp9-2 plants
  seedlings continuing to develop true leaves: about 45%
[2]; attlp9-1 and attlp9-2 mutant seeds
  germination rate: ~50%
[2]; sense lines seeds (35S::AtTLP9 overexpression)
  germination rate: less than 10%
[2]; wild-type seeds
  seeds able to germinate: about 30%

## O=C(O)Cc1c[nH]c2ccccc12 [IAA]
[3]
  Ch2/Ch1 Normalized (Mean) AtTLP7: 2.21

## O=C(O)Cc1cccc2ccccc12 [NAA]
[4]
  Ch2/Ch1 Normalized (Mean) AtTLP10: 2.22
[3]
  Ch2/Ch1 Normalized (Mean) AtTLP7: 0.46

B1: AtTLP9: Arabidopsis TUBBY-like protein, polypeptide SEQ ID NO: 9 (protein, listed as Arabidopsis sp.)
chain: T1 sequence (Q9SQU1 1-380 partner)
[5]
  interaction with ASK1: physically interacts with ASK1
